# Test results reported in US20130296347A1, “Compositions and Methods for Prophylaxis and Treatment of Addictions” (Omeros Corporation, priority 2007, published 2013).
# Where “and” joins values, the source holds several entries; their conditions need not be identical. Equal values may be shown once. Entries after “also recorded” stand apart in the source; their conditions may differ.
# Key:
# msP rats [1] = test: Acute voluntary ethanol intake, free choice 10% alcohol 24 hours a day; assay type: in vivo, rat; conditions: for ethanol intake, drug alone (post-hoc): low dose given at 12 hours and 1 hour before access, partner drugs at doses of the examples; for ethanol intake in a pilot study: low dose: fluoxetine 3.0, mirtazapine 5.0, topiramate 30.0, levetiracetam 100.0, gabapentin 60.0 mg/kg OS, ondansetron 1.0, antalarmin […] IP
# Description: MsP rats were first trained to drink 10% (w/v) alcohol for 24 hours a day (free choice between water and ethanol). […] Before starting the treatment, rats were trained to gavage administration procedures for three days, during which they received vehicle (distilled water). […] Drinking experiments started at the beginning of the dark cycle. Alcohol, water and food intakes were monitored at 2, 8 and 24 hours after ethanol was made available.
# Before starting the treatment, rats were trained to gavage and IP administration procedures for three days. Experiment was conducted in a between subject design (n=22). […] Drinking experiments started at the beginning of the dark cycle. Alcohol, water and food intakes were monitored at 2, 8 and 24 hours after ethanol was made available.
# The drinking experiments were conducted at the beginning of the dark cycle, and alcohol, water and food intakes were monitored at 2, 8 and 24 hours after ethanol was made available.
# MsP rats were first trained to drink 10% (w/v) alcohol for 24 hours a day (free choice between water and ethanol). […] Rats treated with drug vehicles served as a control. Before starting the treatment, rats were trained to gavage administration for three days, during which they received drugs vehicle (distilled water). […] Drinking experiments started at the beginning of the dark cycle. Alcohol, water, and food intakes were monitored at 2, 8 and 24 hours after ethanol was made available.
# (§1) MsP rats were first trained to drink 10% (w/v) alcohol for 24 hours a day (free choice between water and ethanol). […] Rats treated with drug vehicles served as a control. Before starting the treatment, rats were trained to gavage administration for three days, during which they received drugs vehicle (distilled water). […] Drinking experiments started at the beginning of the dark cycle. Alcohol, water and food intakes were monitored at 2, 8 and 24 hours after ethanol was made available.
# as §1, §1, §1, §1
# heavy tobacco smokers [2] = test: Pilot clinical study in heavy tobacco smokers; assay type: in vivo, human; parameters: overall smoking reduction / inhibition of smoking prior to dropping out: concentration or dose not given beside the values; conditions: for Percent inhibition of smoking: baseline data expressed as 100%: T = 0, smoking before entering the treatment; for Percent inhibition of smoking: baseline data expressed as 100% / Percent inhibition of smoking: individual patients; for craving score (visual analogic craving scale): over treatment
# Description: Data were recorded for two months, during which patients were seen by the physician every other week. Patients were instructed to record in a personal logbook the number of cigarettes per day and the time of the day smoking occurred. At the end of the study, the logbooks were returned to the clinical personnel who analyzed the data. […] During the first month of treatment, every two weeks, ACTH and cortisol levels were also monitored to evaluate HPA activation before and during treatment.
# heavy tobacco smokers [3] = test: Pilot clinical study in heavy tobacco smokers; assay type: in vivo, human
# [4] = tested on: Marchigian Sardinian alcohol-preferring (msP) rats; test: Acute voluntary ethanol intake, alcohol access restricted to 2 hours/day; assay type: in vivo, rat
# Description: (§2) At the beginning of the experiments, msP rats were allowed free choice between water and 10% (v/v) alcohol 24 h/day for at least 15 days. The fluids were offered in graduated drinking tubes equipped with metallic drinking spouts. The position (to the right or left) of alcohol and water drinking tubes was changed daily to avoid the development of side preference. Water and food were available ad libitum, while alcohol access was either restricted to 2 hours/day (Examples 1 and 2) or was available 24 hours/day (Examples 3 and 4). Alcohol, water and food intakes were measured.
# . After acquisition of a stable baseline of ethanol intake (6-8 g/kg bw; daily), alcohol access was restricted to 2 hours a day at the beginning of the dark phase. Water and food were freely available.
# (§3) […]. Before starting the treatment, rats were trained to gavage administration procedures for three days, during which they received vehicle (distilled water).
# Treatments were carried out at intervals of at least three days. […] Drinking experiments were conducted right at the beginning of the dark cycle. Alcohol, water and food intakes were monitored at 30, 60, 90 and 120 minutes after ethanol was made available.
# The msP rats (n=8) were prepared for the study as described in Example 1. After acquisition of a stable baseline of ethanol intake, alcohol access was restricted to 2 hours a day at the beginning of the dark phase. Water and food were freely available. […]. The experiment was conducted using a within subject counterbalanced Latine square design where each animal received all drug doses.
# These experiments were conducted at the beginning of the dark cycle and alcohol, and water and food intakes were monitored at 30, 60, 90 and 120 minutes after ethanol was made available.
# [5] = tested on: Marchigian Sardinian alcohol-preferring (msP) rats; test: Subchronic (7 days) voluntary ethanol intake, 10% alcohol available 24 hours/day; assay type: in vivo, rat; conditions: 7 days; naltrexone […] IP alone or with pioglitazone 10.0 or 30.0 mg/kg OS
# Description: as §2, §3
# Alcohol, water and food intakes were monitored at 2, 8 and 24 hours. Fluids and food intakes were monitored for three additional days after the end of the drug treatment period.
# […]. According to a between-subject design, four groups of msP rats (N=9/group) were prepared as described in Example 3. […] […]. Alcohol, water and food intakes were monitored at 2, 8 and 24 hours. Fluids and food intakes were monitored for three additional days after the end of the drug treatment period.
# msP rats [6] = test: Cue-induced reinstatement of alcohol seeking; assay type: in vivo, rat; conditions: naltrexone 0.25 and 1.0 mg/kg 1 hour before test
# Description: Cue-induced reinstatement of alcohol-seeking behaviour experimental procedures consisted of three phases: (1) conditioning phase; (2) extinction phase; and (3) reinstatement phase, as described below.
# For the conditioning phase, at the completion of the fading procedure (see above), in 30 min daily sessions, animals were trained to discriminate between 10% alcohol and water. Beginning with self-administration training at the 10% alcohol concentration, discriminative stimuli (SD) predictive of alcohol versus water availability were presented during the alcohol and water self-administration sessions, respectively. The discriminative stimulus for alcohol consisted of the odour of an orange extract (S^+) whereas water availability (i.e. no reward) was signalled by an anise extract (S^−). The olfactory stimuli were generated by depositing six to eight drops of the respective extract into the bedding of the operant chamber. In addition, each lever-press resulting in delivery of alcohol was paired with illumination of the chamber's house light for 5 sec (CS^+). The corresponding cue during water sessions was a 5 second tone (70 dB) (CS). Concurrently with the presentation of these stimuli, a 5 sec. time-out period was in effect, during which responses were recorded but not reinforced. The olfactory stimuli serving as S^+ or S^− for alcohol availability were introduced one minute before extension of the levers and remained present throughout the 30-min. sessions. The bedding of the chamber was changed and bedding trays were cleaned between sessions. During the first three days of the conditioning phase, the rats were given alcohol sessions only. Subsequently, alcohol and water sessions were conducted in random order across training days, with the constraint that all rats received a total of 10 alcohol and 10 water sessions.
# For the extinction phase, after the last conditioning day, rats were subjected to 30-min extinction sessions for 15 consecutive days. During this phase, sessions began by extension of the levers without presentation of the SD. […]
# alcoholic patients = test: Observational study of alcohol abuse in human patients; assay type: in vivo
# Source text: ACT)+psychotherapy. […] Patients were instructed to record in a personal logbook the number of drinks per day and the time of the day drinks occurred. At the end of the study, the logbooks were returned to the clinical personnel who analyzed the data. […] In addition, biochemical parameters to ascertain alcohol detoxification and to measure recovery of physiological functions (i.e., hepatic function) were monitored monthly. Hematological parameters measured included: mean corpuscular volume (MCV); gamma-GT; aspartate aminotransferase (AST); alanine aminotransferase (ALT); and carbohydrate-deficient transferring (CDT). MCV and CDT are biomarkers for ethanol consumption, and GGT, ALT and AST are biomarkers for hepatic functionality. Data were analyzed by analysis of variance followed by Newman-Keuls post hoc tests when appropriate.
# msP rats [7] = test: Yohimbine-induced (stress) reinstatement of alcohol seeking; conditions: naltrexone 0.25 and 1.0 mg/kg IP 1 hour before test
# Source text: Stress-induced reinstatement of alcohol-seeking experimental procedures consisted of three phases: (1) training phase; (2) extinction phase; and (3) reinstatement phase, as described below.
# For the training phase, after completion of the fading procedure, msP rats were trained to self-administer 10% (v/v) alcohol for 15 days in 30-min daily sessions under a FR1 schedule of reinforcement. During the infusion, a stimulus house light was turned on for 5 s (time out; TO).
# For the extinction phase, after the last alcohol self-administration session, animals were subjected to 30-min extinction sessions for 15 consecutive days.
# The day after the last extinction session, rats were subjected to the reinstatement test.
# Animals received all drug treatments according to a counterbalance Latin square design. A 3-day interval, during which animals were subjected to extinction sessions, was allowed between drug tests.
# Long Evans rats = test: Yohimbine-induced reinstatement of nicotine seeking; assay type: in vivo, rat; conditions: yohimbine 2.0 mg/kg/ml; p<0.001
# Description: Stress and anxiety are major factors in resuming nicotine use in former abstinent users. […] Reinstatement experiments and relative drug treatments were performed every third day. Between reinstatements, extinction baseline was re-established.
# [8] = pioglitazone 30 mg/day or naltrexone 50 mg/day + psychotherapy
smiles,measurement,setting,value
O=C(Nc1ccccc1)c1cc([N+](=O)[O-])ccc1Cl [GW9662],ethanol intake,msP rats [1]; GW9662 5 μg/rat ICV alone,did not significantly affect
same,pioglitazone-induced reduction of ethanol intake,msP rats [1]; GW9662 1.0 and 5.0 mg/kg IP with pioglitazone 30 mg/kg OS,blocked the effect of pioglitazone in a dose related manner
same,ethanol drinking,"msP rats [1]; GW9662 alone, 1.0 and 5.0 mg/kg IP",did not modify
CCCCN(CC)c1nc(C)nc2c1c(C)c(C)n2-c1c(C)cc(C)cc1C [antalarmin],"ethanol intake, drug alone (post-hoc)",msP rats [1]; pioglitazone 10 mg/kg OS,did not significantly modify
same,ethanol intake in a pilot study,msP rats [1],modestly reduced
CC(NC(C)(C)C)C(=O)c1cccc(Cl)c1 (stereo not shown) [bupropione],Percent inhibition of smoking: baseline data expressed as 100%,heavy tobacco smokers [2],100%
same,Percent inhibition of smoking,"heavy tobacco smokers [2]; T = 2 weeks of treatment, Pio 15-30 mg/daily, Var 0.5 to 2.0 mg/day",100%
same,Percent inhibition of smoking,"heavy tobacco smokers [2]; T = 4 weeks, listed as Bup",20% and 18% and 15%
same,Percent inhibition of smoking,"heavy tobacco smokers [2]; T = 6 weeks, listed as Bup",28% and 20% and 21%
same,Percent inhibition of smoking,heavy tobacco smokers [2]; T = 8 weeks,34%
same,inhibition of smoking prior to dropping out,heavy tobacco smokers [2]; bupropione patient who dropped out after four weeks,20%
same,craving score (visual analogic craving scale),heavy tobacco smokers [2],less effective
same,Percent inhibition of smoking,"heavy tobacco smokers [3]; T = 10 weeks, individual patients, listed as Bup",40% and 45%
same,smoking reduced,heavy tobacco smokers [3]; two bupropione patients after 10 weeks of drug administration,about 40%
CNCCC(Oc1ccc(C(F)(F)F)cc1)c1ccccc1 (stereo not shown) [fluoxetine],"ethanol intake, drug alone (post-hoc)",msP rats [1]; pioglitazone 10 mg/kg OS,did not significantly modify
same,ethanol intake in a pilot study,msP rats [1],did not reduce ethanol intake
NCC1(CC(=O)O)CCCCC1 [gabapentin],"ethanol intake, drug alone (post-hoc)",msP rats [1]; pioglitazone 10 mg/kg OS,did not significantly modify
same,ethanol intake in a pilot study,msP rats [1],did not reduce ethanol intake
CC[C@@H](C(N)=O)N1CCCC1=O [levetiracetam],"ethanol intake, drug alone (post-hoc)",msP rats [1]; pioglitazone 10 mg/kg OS,did not significantly modify
same,ethanol intake in a pilot study,msP rats [1],did not reduce ethanol intake
CN1CCN2c3ncccc3Cc3ccccc3C2C1 (stereo not shown) [mirtazapine],"ethanol intake, drug alone (post-hoc)",msP rats [1]; pioglitazone 10 mg/kg OS,did not significantly modify
same,ethanol intake in a pilot study,msP rats [1],did not reduce ethanol intake
O=C1CC[C@@]2(O)[C@H]3Cc4ccc(O)c5c4[C@@]2(CCN3CC2CC2)[C@H]1O5 [naltrexone],ethanol intake at 120 minutes,[4]; naltrexone […] IP alone or with pioglitazone 10 mg/kg OS,did not show significant effects
same,"ethanol intake at 30, 60, and 90 minutes",[4]; naltrexone […] IP alone or with pioglitazone 10.0 or 30.0 mg/kg OS,significantly reduced
same,ethanol intake at 8 and 24 hours,[5],not at 8 and 24 hours
same,ethanol intake at 2 hours,[5],significantly reduced
same,"voluntary ethanol intake, overall",[5],significantly reduced
same,cue-induced (conditioned) reinstatement of alcohol-seeking,msP rats [6],significantly reduced
same,"hepatic parameters (GGT, ALT, AST)",alcoholic patients; 2-month treatment,ameliorated
same,Depression Scale M.A.D.R.S (mean score values),alcoholic patients; T = 1.2,18
same,Depression Scale M.A.D.R.S (mean score values),alcoholic patients; T = 1.3,16
same,Depression Scale M.A.D.R.S (mean score values),alcoholic patients; T = 1.4,17
same,Depression Scale M.A.D.R.S (mean score values),alcoholic patients; T = 2.1,17
same,Depression Scale M.A.D.R.S (mean score values),alcoholic patients; T = 2.2,15
same,"effect on daily drinks, comparison of drugs","alcoholic patients; first two weeks of treatment, P<0.05",more effective than pioglitazone
same,daily ethanol intake (number of daily drinks),alcoholic patients; [8],significantly reduced
same,number of abstinence days,alcoholic patients; [8],increased
same,OCDS versus controls,"alcoholic patients; post hoc, P<0.001",statistically significant difference
same,all five blood biomarkers versus controls (psychotherapy alone),"alcoholic patients; post hoc, P<0.001",statistical difference
same,yohimbine-induced reinstatement of alcohol seeking,msP rats [7],did not significantly reduce; also recorded: not modified
Cc1nccn1CC1CCc2c(c3ccccc3n2C)C1=O (stereo not shown) [ondansetron],"ethanol intake, drug alone (post-hoc)",msP rats [1]; pioglitazone 10 mg/kg OS,did not significantly modify
same,ethanol intake in a pilot study,msP rats [1],did not reduce ethanol intake
CC1(C)O[C@@H]2[C@@H](CO[C@@]3(COS(N)(=O)=O)OC(C)(C)O[C@@H]23)O1 [topiramate],"ethanol intake, drug alone (post-hoc)",msP rats [1]; pioglitazone 10 mg/kg OS,did not significantly modify
same,ethanol intake in a pilot study,msP rats [1],did not reduce ethanol intake
same,"ethanol intake at 2 hours, drug alone","msP rats [1]; pioglitazone 10 mg/kg OS, topiramate 30.0 mg/kg OS, p<0.05",significant reduction
c1cnc2cc3c(cc2n1)[C@@H]1CNC[C@H]3C1 [varenicline],Percent inhibition of smoking: baseline data expressed as 100%,heavy tobacco smokers [2],100%
same,craving score (visual analogic craving scale),heavy tobacco smokers [2],highest reduction
same,STAI anxiety score,heavy tobacco smokers [2]; over treatment weeks,significantly reduced
same,weekly smoked cigarettes compared to bupropione (post hoc),heavy tobacco smokers [2]; p<0.05,significant difference
same,subjects reaching complete abstinence,"heavy tobacco smokers [2]; pioglitazone 4 patients, varenicline 3 patients",one
same,overall smoking reduction,heavy tobacco smokers [2]; three participants receiving varenicline,95%
COC(=O)[C@@H]1[C@H]2C[C@H]3c4[nH]c5ccccc5c4CCN3C[C@@H]2CC[C@@H]1O [yohimbine],reinstatement of responding compared to extinction,Long Evans rats,significant reinstatement
